Measured values: patent US20250353873A1, “COMPOUNDS AND METHODS FOR MODULATING APOE EXPRESSION” (Ionis Pharmaceuticals, Inc., priority 2024, published 2025)
Strand notation (5' to 3'): a small letter for the sugar, then the base; units joined by * are phosphorothioate-linked, units joined directly phosphodiester-linked; [ ] holds rarer units or linkages, { } end groups; capitals alone tell only the bases. [ms] = mesyl phosphoramidate linkage; e = 2'-O-(2-methoxyethyl) (MOE); k = constrained ethyl (cEt); [5mC] = 5-methylcytosine; d = 2'-deoxy (DNA)

What was measured:
human APOE RNA [1] = test: Dose-dependent inhibition of human APOE RNA in HepG2 cells, electroporation, 50,000 cells per well, RT-PCR normalized to GAPDH (Example 4, Tables 8-10); type: cell-based; settings: for APOE RNA (% UTC) 1,280 nM: 24-hour treatment, 1,280 nM; for APOE RNA (% UTC) 3,200 nM: 24-hour treatment, 3,200 nM; for APOE RNA (% UTC) 8,000 nM: 24-hour treatment, 8,000 nM; for APOE RNA (% UTC) 20,000 nM: 24-hour treatment, 20,000 nM
How it was run: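 Readout is percent APOE RNA versus untreated controls, measured by RT-PCR (primer probe set RTS3073) and normalized to human GAPDH. Modified oligonucleotides were delivered by electroporation at varying doses into HepG2 cells plated at 50,000 per well.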

human APOE RNA [2] = test: Activity in APOE C57BL/6NTac-Apoeem7250 knock-in mice, single ICV bolus, 20 weeks (Example 13); type: in vivo; settings: single ICV bolus 300 μg, 20 weeks post treatment, normalized to mouse Ppia
How it was run: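 Cortical and spinal cord RNA was assayed by real-time RT-PCR for human APOE, normalized to mouse Ppia and reported as percent of PBS controls. Tissue was taken twenty weeks after one 300 μg intracerebroventricular bolus in APOE knock-in mice, 4 per group.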

human APOE RNA [3] = test: Activity in APOE C57BL/6NTac-Apoeem7250 knock-in mice, single ICV bolus, 16 weeks (Example 12); type: in vivo; settings: single ICV bolus 300 μg, 16 weeks post treatment, normalized to mouse Ppia
How it was run: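 A single 300 μg intracerebroventricular dose was given, with PBS-treated mice as reference; cortical and spinal cord tissue was taken 16 weeks later. RT-qPCR quantified human APOE RNA, Ppia-normalized, expressed relative to PBS animals (% control).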

human APOE RNA [4] = test: Duration of action study in APOE C57BL/6NTac-Apoeem7250 knock-in mice (Example 16); type: in vivo; settings: 300 μg ICV
How it was run: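 Knock-in mice (2-4 per group) received a single ICV bolus of 300 μg oligonucleotide or PBS. At various timepoints, cortex and spinal cord human APOE RNA was measured by RT-qPCR (RTS3073), normalized to mouse Ppia and expressed as % of PBS control.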

[5] = HepG2 cells, electroporation, 24-hour treatment, 5 nM, Table 8
[6] = HepG2 cells, electroporation, 24-hour treatment, 13 nM, Table 8
[7] = HepG2 cells, electroporation, 24-hour treatment, 33 nM, Table 8
[8] = HepG2 cells, electroporation, 24-hour treatment, 82 nM, Table 8
[9] = HepG2 cells, electroporation, 24-hour treatment, 205 nM, Table 8
[10] = HepG2 cells, electroporation, 24-hour treatment, 512 nM, Table 8
[11] = HepG2 cells, electroporation, Table 8
[12] = reduction of human APOE RNA, HepG2 cells, electroporation, 24-hour treatment, Table 8

Substance	APOE RNA (% UTC) 5 nM (human APOE RNA [1]; [5])	APOE RNA (% UTC) 13 nM (human APOE RNA [1]; [6])	APOE RNA (% UTC) 33 nM (human APOE RNA [1]; [7])	APOE RNA (% UTC) 82 nM (human APOE RNA [1]; [8])	APOE RNA (% UTC) 205 nM (human APOE RNA [1]; [9])	APOE RNA (% UTC) 512 nM (human APOE RNA [1]; [10])	APOE RNA (% UTC) 1,280 nM (human APOE RNA [1]; [11])	APOE RNA (% UTC) 3,200 nM (human APOE RNA [1]; [11])	APOE RNA (% UTC) 8,000 nM (human APOE RNA [1]; [11])	APOE RNA (% UTC) 20,000 nM (human APOE RNA [1]; [11])	IC50 (human APOE RNA [1]; [12])	APOE RNA (% control) Cortex (human APOE RNA [2])	APOE RNA (% control) Spinal Cord (human APOE RNA [2])	APOE RNA (% control) Cortex (human APOE RNA [3])	APOE RNA (% control) Spinal Cord (human APOE RNA [3])	further results
1785598: modified oligonucleotide complementary to human APOE RNA (k[5mC]*kT*kT*dG[ms]dG[ms]dT[ms]dG[ms]dA[ms]dA[ms]dT*d[5mC]*dT*dT*dT*dA*dT[ms]kT*kA*dA[ms]kA; antisense) [compound 1785598]	112 % UTC	109 % UTC	110 % UTC	95 % UTC	70 % UTC	73 % UTC	33 % UTC	21 % UTC	8 % UTC	9 % UTC	840 nM	72 % control	30 % control	36 % control	24 % control	
1757575 (eA*e[5mC]eTeT*kG*kG*dT*dG[ms]dA[ms]dA[ms]dT*d[5mC]*dT*dT*dT*dA[ms]kT*eT*eA*eA; antisense) [Compound 1757575]												39 % control	88 % control	33 % control	21 % control	APOE RNA (% UTC) (human APOE RNA [1]; 5 nM, HepG2, electroporation, 16-hour treatment): 84 % UTC; APOE RNA (% UTC) (human APOE RNA [1]; 13 nM, HepG2, electroporation, 16-hour treatment): 80 % UTC; APOE RNA (% UTC) (human APOE RNA [1]; 33 nM, HepG2, electroporation, 16-hour treatment): 87 % UTC; APOE RNA (% UTC) (human APOE RNA [1]; 82 nM, HepG2, electroporation, 16-hour treatment): 78 % UTC; APOE RNA (% UTC) (human APOE RNA [1]; 205 nM, HepG2, electroporation, 16-hour treatment): 81 % UTC; APOE RNA (% UTC) (human APOE RNA [1]; 512 nM, HepG2, electroporation, 16-hour treatment): 51 % UTC; APOE RNA (% UTC) (human APOE RNA [1]; 1,280 nM, HepG2, electroporation, 16-hour treatment): 44 % UTC; APOE RNA (% UTC) (human APOE RNA [1]; 3,200 nM, HepG2, electroporation, 16-hour treatment): 37 % UTC; APOE RNA (% UTC) (human APOE RNA [1]; 8,000 nM, HepG2, electroporation, 16-hour treatment): 25 % UTC; APOE RNA (% UTC) (human APOE RNA [1]; 20,000 nM, HepG2, electroporation, 16-hour treatment): 15 % UTC; IC50 (human APOE RNA [1]; HepG2, electroporation, 16-hour treatment): 940 nM
1778131: modified oligonucleotide complementary to human APOE RNA (eA*e[5mC]eTeTeGkG*dT*dG[ms]dA[ms]dA*dT*d[5mC]*dT*dT*dT*dA[ms]kTkT*eA*eA; antisense) [compound 1778131]	104 % UTC	117 % UTC	101 % UTC	78 % UTC	71 % UTC	50 % UTC	35 % UTC	28 % UTC	7 % UTC	5 % UTC	630 nM	65 % control	43 % control	34 % control	17 % control	
1778111: modified oligonucleotide complementary to human APOE RNA (eA*e[5mC]eTeTeG*kG*dT*dG[ms]dA[ms]dA*dT*d[5mC]*dT*dT*dT*dA[ms]eTeT*eA*eA; antisense) [compound 1778111]	75 % UTC	96 % UTC	73 % UTC	61 % UTC	53 % UTC	44 % UTC	27 % UTC	17 % UTC	12 % UTC	9 % UTC	240 nM	59 % control	25 % control	49 % control	27 % control	
1778130: modified oligonucleotide complementary to human APOE RNA (eA*e[5mC]eTeTeG*kG*dT*dG[ms]dA[ms]dA*dT*d[5mC]*dT*dT*dT*dA[ms]kTkT*eA*eA; antisense) [compound 1778130]	100 % UTC	106 % UTC	93 % UTC	75 % UTC	61 % UTC	44 % UTC	26 % UTC	19 % UTC	10 % UTC	6 % UTC	400 nM	48 % control	19 % control	34 % control	15 % control	
1746809 (k[5mC]*dT[ms]kT*dG[ms]kG*dT[ms]dG[ms]dA[ms]dA[ms]dT*d[5mC]*dT*dT*dT*dA[ms]dT*dT[ms]kA*kA*kA; antisense) [Compound 1746809]																APOE RNA (% control) Cortex (human APOE RNA [4]; 112 days post-dose): 55 % control; APOE RNA (% control) Cortex (human APOE RNA [4]; 140 days post-dose): 66 % control; APOE RNA (% control) Spinal Cord (human APOE RNA [4]; 112 days post-dose): 86 % control; APOE RNA (% control) Spinal Cord (human APOE RNA [4]; 140 days post-dose): 107 % control; APOE RNA (% UTC) (human APOE RNA [1]; 5 nM, HepG2, electroporation, 24-hour treatment): 91 % UTC; APOE RNA (% UTC) (human APOE RNA [1]; 33 nM, HepG2, electroporation, 24-hour treatment): 98 % UTC; APOE RNA (% UTC) (human APOE RNA [1]; 82 nM, HepG2, electroporation, 24-hour treatment): 74 % UTC; APOE RNA (% UTC) (human APOE RNA [1]; 205 nM, HepG2, electroporation, 24-hour treatment): 81 % UTC; APOE RNA (% UTC) (human APOE RNA [1]; 512 nM, HepG2, electroporation, 24-hour treatment): 54 % UTC; APOE RNA (% UTC) (human APOE RNA [1]; 1,280 nM, HepG2, electroporation, 24-hour treatment): 35 % UTC; APOE RNA (% UTC) (human APOE RNA [1]; 3,200 nM, HepG2, electroporation, 24-hour treatment): 33 % UTC; APOE RNA (% UTC) (human APOE RNA [1]; 8,000 nM, HepG2, electroporation, 24-hour treatment): 23 % UTC; APOE RNA (% UTC) (human APOE RNA [1]; 20,000 nM, HepG2, electroporation, 24-hour treatment): 14 % UTC; IC50 (human APOE RNA [1]; HepG2, electroporation, 24-hour treatment): 840 nM
1778128: modified oligonucleotide complementary to human APOE RNA (eA*e[5mC]eTeTkGkG*dT*dG[ms]dA[ms]dA*dT*d[5mC]*dT*dT*dT*dA[ms]kTeT*eA*eA; antisense) [compound 1778128]	81 % UTC	83 % UTC	66 % UTC	53 % UTC	39 % UTC	28 % UTC	22 % UTC	9 % UTC	8 % UTC	5 % UTC	100 nM	60 % control	22 % control	34 % control	22 % control	
1693105: 6-10-4 MOE gapmer CTTGGTGAATCTTTATTAAA, linkages sosssszzzssssszssss (e[5mC]*eTeT*eG*eG*eT*dG[ms]dA[ms]dA[ms]dT*d[5mC]*dT*dT*dT*dA[ms]dT*eT*eA*eA*eA) [compound 1693105]														65 % control	44 % control	
1785617: modified oligonucleotide complementary to human APOE RNA (k[5mC]*dT[ms]dT[ms]kG*dG[ms]kT*dG[ms]dA[ms]dA[ms]dT[ms]d[5mC]*dT*dT*dT*dA*dT*kT*kA*dA[ms]kA; antisense) [compound 1785617]	91 % UTC	104 % UTC	93 % UTC	83 % UTC	93 % UTC	50 % UTC	47 % UTC	18 % UTC	27 % UTC	11 % UTC	950 nM	61 % control	38 % control	37 % control	28 % control	
